Legend:
[1] = tested on: 12 day biofilm of Pseudomonas aeruginosa; assay: Bacterial count (CFU/ml) of 12-day biofilm after 24 hours with the products; assay type: cell-based; conditions: for bacterial count in biofilm (CFU/ml × 10^7): 24 hours; for decrease of the number of CFU/ml of the 12-day biofilm versus the positive control: concentrations of Table 1 (tobramycin 4 μg/ml; clarithromycin 100, 200, 500 μg/ml; combinations)
Text: (§1) Biofilms of Pseudomonas aeruginosa—strain PY O1 were formed according to the methods described by Ceri et al, the calgary biofilm device: new technology for rapid determination of antibiotic susceptibilities of bacterial biofilms, Journal of clinical microbiology, pp. 1771-1776, 1999 and Abdi-Ali et al, bactericidal activity of various antibiotics against biofilm-producing Pseudomonas aeruginosa, International Journal of Antimicrobial Agents 27, 196-200, 2006.
(§2) PY O1: is a cystic Fibrosis clinical mucoid strain of Pseudomonas aeruginosa received from the Erasme Hospital, Brussels.
After having shown that the number of Pseudomonas aeruginosa within the biofilms was stable after 12 days, the products listed in Table 1 were added to the media for the duration of 24 hours. Thereafter the biofilm was rinsed three times with a 0.01 M phosphate buffer adjusted at pH 7.5 in order to remove all cells not bound to the biofilm. The microplate was then placed on ultrasonic bath at 35° C. for 5 minutes to allow the bacteria present in the biofilm to separate from such biofilm. A bacterial count was then performed (number of coloning forming unit CFU/ml). Each experience was done twice and the CFU counting was also repeated twice/experience.

[2] = Particle size by laser diffraction; assay type: physicochemical; conditions: micronized, measured by laser diffraction
Text: A dry powder composition for inhalation of tobramycin and clarithromycin was formulated using micronized tobramycin supplied by Teva Plantex (Israel). Clarithromycin was supplied by Teva Plantex (Israel) in a non-micronized form. Clarithromycin was then micronized using the micronizer MC-one® (JetpHarma, Switerland). […] The micronisation parameters were a pressure of 10 bars in the Venturi, a pressure of 8 bars in the ring and a feeding rate of 5 g/minute. The mean particle size of the micronized clarithromycin obtained (measured by laser diffraction) was 1.6 μm.

[3] = tested on: planktonic Pseudomonas aeruginosa; assay: MIC on planktonic bacteria (NCCLS dilution method); assay type: cell-based
Procedure: as §2
The determination of the minimal inhibitory concentration (MIC) is performed according to the standard of NCCLS (NCCLS, Methods for dilution Antimicrobial Susceptibility Tests for bacteria that grow aerobically; approved standards, sixth edition, M7-A6, vol. 23 no.2, January 2003.

[4] = In vitro lung deposition, Multistage Liquid Impinger (MLI); assay type: physicochemical; conditions: for lung concentration per capsule: estimated from lung deposition with about 100 ml epithelial liquid in the lung, composition of example 6
Text: The amount of macrolide agent inhaled shall be high enough to affect, in some way, the biofilm. It has to be noted that as the effect of macrolide derivatives on the biofilm is mediated through a non-antibacterial mechanism. […] Nevertheless, it is a another object of the present invention to provide a composition containing high concentrations (or amounts) of each of the aminoglycoside derivative and of the macrolide derivative i.e. at least more than 10%, preferably more than 15%, and more preferably more than 20% of the dry powder composition. It is indeed particularly interesting to achieve high lung doses of those therapeutic agents with the minimum amounts of inhalations because it makes the administration easier and more importantly increase the patient's compliance. It also decreases the nominal dose of each active ingredient and thus the adverse effects linked to these actives. In the present invention, the dry powder inhaler also provides a high Fine Particle Dose (FPD) and Fine Particle […] (FPF) when tested in vitro on a Multistage Liquid Impinger (MLI, Eur. Pharm, 5th Edition, chapter 2.9.18). The FPD and FPF are the parameters that predict in vivo lung deposition.
The in vitro lung deposition test was performed using equipment and conditions as described in the European Pharmacopoeia (5th edition, chapter 2.9.18—apparatus C). This equipment consists of a Multistage Liquid Impinger (MLI) and was operated with an air flow of 100 L/min during a period of time of 2.4 seconds to simulate inhalation capabilities of patients. The quantification of the deposition of each drug on each stage of the MLI was performed by HPLC equipped with a a Corona detector.

[5] = tested on: 12 day old Pseudomonas aeruginosa biofilm; assay: MIC on 12 day old biofilm; assay type: cell-based
Text: as §1, §2
In a second experiment using the same modus operandi as above, we measured the MIC of Tobramycin on a 12 day old Pseudomonas aeruginosa biofilm. This situation is much closer to the situation observed in vivo in chronic respiratory diseases like Cystic Fibrosis.

[6] = MLI1, example 6 capsule 10 mg/10 mg, MLI 100 L/min
[7] = MLI2, example 6 capsule 10 mg/10 mg, MLI 100 L/min
[8] = MLI3, example 6 capsule 10 mg/10 mg, MLI 100 L/min
[9] = Mean (n = 3), example 6 capsule 10 mg/10 mg, MLI 100 L/min
[10] = composition of example 6, MLI 100 L/min

CC[C@H]1OC(=O)[C@H](C)[C@@H](O[C@H]2C[C@@](C)(OC)[C@@H](O)[C@H](C)O2)[C@H](C)[C@@H](O[C@@H]2O[C@H](C)C[C@H](N(C)C)[C@H]2O)[C@](C)(OC)C[C@@H](C)C(=O)[C@H](C)[C@@H](O)[C@]1(C)O [Clarithromycin]
bacterial count in biofilm (CFU/ml × 10^7) ([1]; C 100 μg/ml, 12 day biofilm): 14 CFU × 10^7
bacterial count in biofilm (CFU/ml × 10^7) ([1]; C 200 μg/ml, 12 day biofilm): 10 CFU × 10^7
bacterial count in biofilm (CFU/ml × 10^7) ([1]; C 500 μg/ml, 12 day biofilm): 7 CFU × 10^7
decrease of the number of CFU/ml of the 12-day biofilm versus the positive control [1]: neither tobramycin 4 μg/ml nor clarithromycin at 100, 200 and 500 μg/ml alone are able to decrease the number of CFU/m1
mean particle size [2]: 1.6 μm
sensitivity of the bacterium (MIC could not be determined) [3]: not sensitive
Device deposition [4, 6]: 1.155 mg
FPD [4, 6]: 3.14 mg
FPF [4, 6]: 31.4%
Filter deposition [4, 6]: 0.478 mg
Stage 1 deposition [4, 6]: 1.338 mg
Stage 2 deposition [4, 6]: 0.664 mg
Stage 3 deposition [4, 6]: 1.715 mg
Stage 4 deposition [4, 6]: 1.162 mg
Throat deposition [4, 6]: 1.025 mg
Device deposition [4, 7]: 1.048 mg
FPD [4, 7]: 3.76 mg
FPF [4, 7]: 37.6%
Filter deposition [4, 7]: 0.598 mg
Stage 1 deposition [4, 7]: 1.566 mg
Stage 2 deposition [4, 7]: 0.845 mg
Stage 3 deposition [4, 7]: 1.891 mg
Stage 4 deposition [4, 7]: 1.482 mg
Throat deposition [4, 7]: 1.134 mg
Device deposition [4, 8]: 1.433 mg
FPD [4, 8]: 3.98 mg
FPF [4, 8]: 39.9%
Filter deposition [4, 8]: 0.574 mg
Stage 1 deposition [4, 8]: 1.352 mg
Stage 2 deposition [4, 8]: 0.680 mg
Stage 3 deposition [4, 8]: 2.078 mg
Stage 4 deposition [4, 8]: 1.533 mg
Throat deposition [4, 8]: 1.223 mg
Device deposition [4, 9]: 1.212 mg
FPD [4, 9]: 3.63 mg
FPF [4, 9]: 36.3%
Filter deposition [4, 9]: 0.550 mg
Stage 1 deposition [4, 9]: 1.419 mg
Stage 2 deposition [4, 9]: 0.729 mg
Stage 3 deposition [4, 9]: 1.895 mg
Stage 4 deposition [4, 9]: 1.392 mg
Throat deposition [4, 9]: 1.127 mg
FPD/capsule [4, 10]: 3.63 mg
FPF [4, 10]: 36.3%
lung concentration per capsule [4]: 36.3 µg/mL

NC[C@H]1O[C@H](O[C@H]2[C@H](O)[C@@H](O[C@H]3O[C@H](CO)[C@@H](O)[C@H](N)[C@H]3O)[C@H](N)C[C@@H]2N)[C@H](N)C[C@@H]1O [Tobramycin]
bacterial count in biofilm (CFU/ml × 10^7) ([1]; T 4 μg/ml, 12 day biofilm): 25 CFU × 10^7
decrease of the number of CFU/ml of the 12-day biofilm versus the positive control [1]: neither tobramycin 4 μg/ml nor clarithromycin at 100, 200 and 500 μg/ml alone are able to decrease the number of CFU/m1
number of CFU/ml ([1]; tobramycin alone at 4 μg/ml, 12 day biofilm): around 2.5×10^8 CFU/ml
Device deposition [4, 6]: 1.035 mg
FPD [4, 6]: 3.60 mg
FPF [4, 6]: 36%
Filter deposition [4, 6]: 0.664 mg
Stage 1 deposition [4, 6]: 1.760 mg
Stage 2 deposition [4, 6]: 0.614 mg
Stage 3 deposition [4, 6]: 1.512 mg
Stage 4 deposition [4, 6]: 1.598 mg
Throat deposition [4, 6]: 0.929 mg
Device deposition [4, 7]: 0.938 mg
FPD [4, 7]: 4.45 mg
FPF [4, 7]: 44.5%
Filter deposition [4, 7]: 0.838 mg
Stage 1 deposition [4, 7]: 1.837 mg
Stage 2 deposition [4, 7]: 0.726 mg
Stage 3 deposition [4, 7]: 1.818 mg
Stage 4 deposition [4, 7]: 1.965 mg
Throat deposition [4, 7]: 0.859 mg
Device deposition [4, 8]: 1.272 mg
FPD [4, 8]: 4.72 mg
FPF [4, 8]: 47.2%
Filter deposition [4, 8]: 0.778 mg
Stage 1 deposition [4, 8]: 1.546 mg
Stage 2 deposition [4, 8]: 0.606 mg
Stage 3 deposition [4, 8]: 1.895 mg
Stage 4 deposition [4, 8]: 2.202 mg
Throat deposition [4, 8]: 0.771 mg
Device deposition [4, 9]: 1.082 mg
FPD [4, 9]: 4.26 mg
FPF [4, 9]: 42.5%
Filter deposition [4, 9]: 0.760 mg
Stage 1 deposition [4, 9]: 1.714 mg
Stage 2 deposition [4, 9]: 0.648 mg
Stage 3 deposition [4, 9]: 1.742 mg
Stage 4 deposition [4, 9]: 1.922 mg
Throat deposition [4, 9]: 0.853 mg
FPD/capsule [4, 10]: 4.26 mg
FPF [4, 10]: 42.5%
lung concentration per capsule [4]: 42.6 µg/mL
activity (MIC) on 12 day old biofilm [5]: no longer active
